Data on 1 molecule can be found in ChEMBL document CHEMBL5518199, “Discovery of Effective Dual PROTAC Degraders for Neurodegenerative Disease-Associated Aggregates” (J Med Chem, 2024).

A short description of data set [1]: in vivo. The following applies: C57BL/6, mouse, brain, iv, 8 mg/kg.
A short description of data set [2]: in vivo. Particulars: C57BL/6, mouse, plasma, iv, 8 mg/kg.
Data set [3] is described as follows: in vivo. Particulars: C57BL/6, mouse, plasma, iv, 8 mg/kg. This is another data set of the same source.
Data set [4] is described as follows: in vitro. The following applies: C57BL/6, mouse, brain.
A short description of data set [5]: in vivo. The following applies: C57BL/6, mouse, brain, iv, 8 mg/kg. This is another data set of the same source.
Data set [6] is described as follows: in vitro. Particulars: C57BL/6, mouse, plasma.
The nature of data set [7]: in vivo. Particulars: rat, iv, 8 mg/kg.
Data set [8] can be described thus: in vivo. The following applies: C57BL/6, mouse, iv, 8 mg/kg.
Data set [9] can be described thus: in vivo. Particulars: rat, iv, 8 mg/kg. This is another data set of the same source.
Data set [10] can be described thus: in vivo. Particulars: C57BL/6, mouse, iv, 8 mg/kg. This is another data set of the same source.
Data set [11] is described as follows: in vivo. The following applies: C57BL/6, mouse, plasma, iv, 8 mg/kg. The source holds these as a separate data set.
The nature of data set [12]: in vivo. Particulars: rat, iv, 8 mg/kg. This is another data set of the same source.
Data set [13] in a line: in vivo. Particulars: C57BL/6, mouse, iv, 8 mg/kg. This is another data set of the same source.
A short description of data set [14]: in vivo. The following applies: C57BL/6, mouse, iv, 8 mg/kg. The source holds these as a separate data set.
Data set [15] is described as follows: in vivo. Particulars: rat, iv, 8 mg/kg. The source holds these as a separate data set.
Data set [16] in a line: in vivo. Particulars: C57BL/6, mouse, brain, iv, 8 mg/kg. The source holds these as a separate data set.
The nature of data set [17]: in vivo. The following applies: rat, iv, 8 mg/kg. The source holds these as a separate data set.
Data set [18] is described as follows: in vivo. The following applies: C57BL/6, mouse, brain, iv, 8 mg/kg. The source holds these as a separate data set.

`Cc1ccc2nc(-c3ccc(NCCOCCOCCOCCNC(=O)COc4cccc5c4C(=O)N(C4CCC(=O)NC4=O)C5=O)cc3)sc2c1` (stereo not drawn): the values for the AUC at 24 h in the data set “in vivo [1]” and in the data set “in vivo [11]” were 6.02 µM·h and 109 µM·h, respectively. Also, the concentration at 0.25 h in “in vivo [2]” came to 67200 nM; in “in vivo [5]”, 1730 nM. Also, the half-life at 24 h in “in vivo [3]” was 3.24 h; in “in vivo [16]”, 4.21 h; in the data set “in vivo [17]”, 3.78 h. Moreover, the fraction unbound at 24 h in “in vitro [4]” was 0.397; in the data set “in vitro [6]”, 0.442. The Vd at 24 h in the data set “in vivo [7]” was found to be 0.92 L/kg; in the data set “in vivo [10]”, 0.48 L/kg. In addition, the results for the AUC(0-inf) at 24 h in the data set “in vivo [8]” and in “in vivo [12]” were 109 µM·h and 65.5 µM·h, respectively. The AUC(0-t) at 24 h in “in vivo [9]” was found to be 65.4 µM·h; in “in vivo [14]” it was 109 µM·h. In addition, the clearance at 24 h was 1.68 mL/min/kg in “in vivo [13]” and 2 mL/min/kg in “in vivo [15]”. This molecule also had a concentration at 168.25 h in the data set “in vivo [18]” of 2700 nM.

As usually defined, the AUC is the area under the concentration-time curve, a measure of exposure. A high value points to high exposure. The half-life is the time needed for the level to fall by half in the phase considered. Higher therefore signals slow decline. In general, fraction unbound refers to the share of the substance not bound to proteins or other matrix. Lower therefore signals extensive binding. Usually Vd stands for the apparent volume that relates the amount in the body to the concentration in plasma or blood. The low end stands for little distribution into tissue, the high end for wide distribution into tissue. Usually AUC(0-inf) stands for the area under the concentration-time curve extrapolated to infinity. Read a low AUC(0-inf) as low exposure. In general, AUC(0-t) refers to the area under the concentration-time curve up to a stated or last time point. The low end stands for less exposure, the high end for more exposure. As usually defined, the clearance is the volume of plasma or blood freed of the substance per unit of time.
